According to publication PMC12670779, “Targeting the CXCL12/CXCR4 pathway by an optimized derivative or EPI-X4 preserves chondrocyte function and offers a novel therapeutic approach in rheumatic diseases” (Arthritis Research & Therapy, 2025):
Where a name gives a salt, the structure may show the parent alone. Read-outs that look alike come from different tables or passages of the source. Residues, ends and D or L forms follow the SMILES beside them.

Assays:
[1] = target: T1, ACKR3 (Homo sapiens, UniProt P25106); settings: cited from earlier work
T1 sequence (P25106 whole entry): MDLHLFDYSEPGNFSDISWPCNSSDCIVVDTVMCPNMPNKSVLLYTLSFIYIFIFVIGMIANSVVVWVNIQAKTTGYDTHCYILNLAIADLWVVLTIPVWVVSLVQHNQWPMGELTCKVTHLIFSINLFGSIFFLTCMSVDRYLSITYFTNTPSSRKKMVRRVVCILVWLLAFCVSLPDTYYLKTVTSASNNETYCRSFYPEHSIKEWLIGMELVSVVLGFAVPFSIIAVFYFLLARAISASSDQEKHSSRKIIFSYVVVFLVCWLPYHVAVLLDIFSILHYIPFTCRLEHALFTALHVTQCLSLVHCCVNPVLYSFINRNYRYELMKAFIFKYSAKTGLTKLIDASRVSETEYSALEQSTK
T1 sequence (P32121 whole entry partner): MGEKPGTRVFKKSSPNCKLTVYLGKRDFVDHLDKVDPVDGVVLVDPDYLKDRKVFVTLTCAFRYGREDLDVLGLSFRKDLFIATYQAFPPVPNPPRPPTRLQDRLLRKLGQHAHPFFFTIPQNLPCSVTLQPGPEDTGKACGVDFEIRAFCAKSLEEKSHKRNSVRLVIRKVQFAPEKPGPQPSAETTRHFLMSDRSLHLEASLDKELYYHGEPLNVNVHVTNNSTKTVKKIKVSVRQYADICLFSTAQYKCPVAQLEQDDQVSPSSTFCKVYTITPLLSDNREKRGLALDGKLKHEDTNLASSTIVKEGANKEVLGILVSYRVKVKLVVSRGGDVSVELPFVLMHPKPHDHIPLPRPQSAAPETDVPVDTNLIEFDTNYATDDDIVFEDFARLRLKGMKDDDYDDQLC
Text: (§1) In case of CXCR4, there is evidence that binding of CXCL12 promotes a hypertrophic phenotype in chondrocytes, characterized by enhanced catabolic enzyme production (e.g., matrix metalloproteinase 13 (MMP-13)) and collagen type X expression.

[2] = tested on: Dunkin Hartley guinea pigs; settings: cited from earlier work
Text: as §1

[3] = tested on: mice; settings: cited from earlier work
Text: as §1

[4] = cited from earlier work
[5] = tested on: MSCs; settings: AMD3100 400 µM, cited from earlier work
[6] = tested on: human articular chondrocytes (hAC); experiment: Osteogenic differentiation of hAC, Alizarin Red S staining (calcium deposition); format: cell-based; settings: 21 d osteogenic differentiation medium; 200 ng/mL CXCL12; inhibitors 1 µM; n = 5
Procedure: (§2) hAC were seeded in passage 2 at a density of 1 × 10^4 cells/cm^2 and osteogenic differentiation was induced on the next day by addition of osteogenic differentiation medium [ODM: DMEM, 10% FBS, 1 g/L glucose, 1% L-glutamine, 1% penicillin/streptomycin, 10 mM β-glycerophosphate disodium salt hydrate (Sigma-Aldrich), 0.1 µM dexamethasone, 200 µM 2-phospho-L-ascorbic acid trisodium salt]. […] Medium was changed twice a week and additives were refreshed every time. Cells cultured in BM served as negative control.
Evaluation of osteogenic differentiation was carried out by means of an Alizarin Red S staining which indicates calcium deposition. At first, cells were incubated in 70% ethanol for 1 h and subsequently stained with a 40 mM Alizarin Red S solution. For quantification, the cells were washed carefully and bound Alizarin Red S was dissolved in 10% Cetylpyridinium (Sigma-Aldrich). With a multimode microplate reader Infinite M200 Pro (Tecan Austria GmbH, Crailsheim, Germany), absorbance at 652 nm was measured and the amount of Alizarin Red S was calculated based on a standard calibration curve.

[7] = tested on: mouse; settings: both inflammatory mouse models; cited from earlier work
Text: To date, three CXCR4 antagonist have been approved for clinical applications. However, these ligands are only approved for autologous stem cell transplantation in Non-Hodgkin’s lymphoma and the treatment of the WHIM syndrome, a rare congenital immunodeficiency disorder. One decade ago, another promising CXCR4 inhibitor was identified – the Endogenous Peptide Inhibitor of CXCR4, termed EPI-X4 [33]. EPI-X4 is a 16 amino acids long endogenous fragment of human serum albumin and specifically binds to CXCR4 thereby acting as an antagonist and inverse agonist. Using rational dru ...

[8] = tested on: mice; settings: cited from earlier work; remark: listed apart in the source
Text: as §1, with “expression. […] It should also be considered that the pathophysiological mechanisms are not mediated by chondrocytes alone.” for “expression.”

[9] = tested on: human articular chondrocytes (hAC); experiment: Ki-67 immunocytochemistry (proliferation); format: cell-based; settings: 48 h; 200 ng/mL CXCL12; simultaneous addition of inhibitors 1 µM; n = 4
Procedure: On the next day, an Alexa Fluor 488 labled anti-rabbit antibody (1:200, ab150077, Abcam) was added and nuclei were stained with DAPI (0.25 µg/mL). The fluorescence microscope Axioskop 2 mot plus was used for imaging and Ki-67 appeared in green and nuclei in blue.

[10] = target: T1, ACKR3; experiment: β-arrestin-2 recruitment at ACKR3, agonism (NanoBiT, transfected HEK293T cells); format: cell-based; set-up: SmBiT (NanoBiT fragment); expressed in transfected cells; host or cells: HEK293T; settings: compound alone
Procedure: Fifteen thousand HEK293T cells were seeded in 92 µL complete DMEM medium (supplemented with 10% FCS, 1% L-Glutamine and 1% penicillin/streptomycin) and allowed to adhere overnight. On the next day cells were transfected with plasmids containing a β-arrestin-2 coupled to a SmBiT and a CXCR4 or ACKR3 construct coupled to the LgBiT of the NanoBiT protein–protein-interaction assay system. The SmBiT was coupled to the intracellular C-term of the receptor, while the LgBiT was coupled to the N-term of the ß-arrestin. For the transfection, LT1 transfection reagent was used according to manufacturer’s instructions. The next day, medium was changed to 100µL pre-warmed OptiMEM before luminescence measurements were initiated.
For agonism measurements, single compounds were added to the wells after 10 min of background measurement. Baseline correction was performed in the same manner and resulting AUCs were compared to the buffer-only control wells to calculate n-fold ß-arrestin induction.

[11] = tested on: human articular chondrocytes (hAC); experiment: Gene expression during osteogenic differentiation of hAC (qRT-PCR); format: cell-based; settings: 14 d osteogenic differentiation; 200 ng/mL CXCL12; inhibitors 1 µM; n = 4
Procedure: as §2

[12] = target: T2, CXCR4 (Homo sapiens, UniProt P61073); experiment: Inhibition of CXCL12-induced β-arrestin-2 recruitment at CXCR4 (NanoBiT, transfected HEK293T cells); format: cell-based
T2 construct: SmBiT (NanoBiT fragment); expressed in transfected cells; host or cells: HEK293T
T2 sequence (P61073 whole entry, the tested form may be a part): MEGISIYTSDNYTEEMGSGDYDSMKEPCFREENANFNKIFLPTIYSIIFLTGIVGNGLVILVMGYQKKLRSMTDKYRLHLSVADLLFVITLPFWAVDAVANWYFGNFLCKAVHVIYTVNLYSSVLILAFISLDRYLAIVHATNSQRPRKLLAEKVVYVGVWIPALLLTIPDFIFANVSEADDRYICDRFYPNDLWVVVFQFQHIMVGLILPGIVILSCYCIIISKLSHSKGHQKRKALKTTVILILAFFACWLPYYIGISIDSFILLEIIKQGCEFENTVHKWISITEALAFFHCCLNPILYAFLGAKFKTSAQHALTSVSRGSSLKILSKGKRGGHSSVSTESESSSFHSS
Procedure: Fifteen thousand HEK293T cells were seeded in 92 µL complete DMEM medium (supplemented with 10% FCS, 1% L-Glutamine and 1% penicillin/streptomycin) and allowed to adhere overnight. On the next day cells were transfected with plasmids containing a β-arrestin-2 coupled to a SmBiT and a CXCR4 or ACKR3 construct coupled to the LgBiT of the NanoBiT protein–protein-interaction assay system. […] For the transfection, LT1 transfection reagent was used according to manufacturer’s instructions. The next day, medium was changed to 100µL pre-warmed OptiMEM before luminescence measurements were initiated.
For antagonism measurements, cells were first supplied with compounds and 10 min later with 30 nM CXCL12. Subsequently, luminescence signal was measured over 1 h. Baseline luminescence of each well in the first 10 min was averaged and used to calculate the signal-to-noise ratio for all subsequent time points of the same well. The signal-to-noise ratios were further recalculated as a ratio to the average of buffer-only treated wells. These values were plotted over time and areas under curve (AUCs) were determined for each well. Data were normalized to buffer-only wells as 0% and CXCL12-only treated wells as 100%.

[13] = tested on: human cartilage explants; experiment: Live/dead viability/cytotoxicity assay in cartilage explants; format: cell-based; settings: day 7; 200 ng/mL CXCL12 with or without CXCR4 inhibitors 1 µM; n = 5
Procedure: A Live/Dead Viability/Cytotoxicity Assay (Live Technologies) was applied to determine the number of living and dead cells in cartilage explants. A small tissue section of 0.5 mm thickness was extracted from an unfixed cartilage explant and incubated for 40 min in a staining solution (1 µM calcein and 2 µM ethidium homodimer-1). Microscopic analysis was carried out with a Axioskop 2 mot plus microscope and using a z-stack model (AxioVision software).

[14] = tested on: human articular chondrocytes (hAC); experiment: Wound healing assay; format: cell-based; settings: 24 h; 200 ng/mL CXCL12; inhibitors 1 µM; 5% FBS; n ≥ 5
Procedure: At first, a 2 Well Culture-Insert (Ibidi, Gräfelfing, Germany) was attached on a well of a 24 well plate. In each well of the insert, 70 µL cell suspension containing 20,000 hAC (passage 1 or 2) was added and incubated overnight. Next, medium with reduced FBS content (5%) was added and the insert carefully removed. […] Images were captured (Canon EOS 700D camera (Canon, Krefeld, Germany)) after 0 h and 24 h. Cells migrated into the gap were manually counted as previously described.

[15] = tested on: human articular chondrocytes (hAC); experiment: Live cell imaging of undirected migration; format: cell-based; settings: 200 ng/mL CXCL12; inhibitors 1 µM; monitored for 10 h (method), legend says 48 h; normalized to untreated control; n = 5
Procedure: Subsequently, cell localization was monitored for 10 h with a Live Cell Imaging Microscope Leica DMI6000 I (Leica Microsystems, Wetzlar, Germany). Images were acquired every 30 min and at least 6 cells of each well were manually tracked with ImageJ 2.9.0. The average migration distance was calculated and values were normalized to the untreated control.

[16] = tested on: human articular chondrocytes (hAC); experiment: Chondrogenic re-differentiation of hAC in pellet culture, histological scoring; format: cell-based; settings: 28 d in chondrogenic differentiation medium; 200 ng/mL CXCL12; inhibitors 1 µM; n ≥ 4
Procedure: Pellet cultures were generated containing 3.5 × 10^5 hAC in passage 3 and were cultured in chondrogenic differentiation medium [SFM: DMEM, 4.5 g/L glucose, 1% L-glutamine, 1% penicillin/streptomycin, 200 μM 2-phospho-L-ascorbic acid trisodium salt, 0.1% Insulin-Transferrin-Selenium, 0.1 µM dexamethasone (Sigma-Aldrich), 40 µg/mL L-proline (Sigma-Aldrich), 1% pyruvate, 10 ng/mL rhTGF-β3 (PeproTech), 10 ng/mL rhBMP6 (PeproTech)]. The medium was changed twice per week and 200 ng/mL CXCL12 and 1 µM compounds was added. After 28 days, resulting cell pellets were embedded in paraffin and prepared for histology (Collagen type II-IHC and Safranin O staining). For evaluation, a previously established scoring system was used (supplementary Table S2).

[17] = tested on: human articular chondrocytes (hAC); experiment: Gene expression of hypertrophy markers in isolated hAC (qRT-PCR); format: cell-based; settings: 48 h; 200 ng/mL CXCL12; n = 4
Procedure: (§3) During experiments, hAC were cultured in medium with reduced FBS content (5%) and stimulated with 200 ng/mL CXCL12, 1 µM compounds and/or 10 ng/mL IL-1β. Stress-induced premature senescence (SIPS) was induced by Doxorubicin (Doxo) (Selleckchem) treatment. The senescent phenotype was confirmed as previously described. In brief, hAC were exposed to 0.1 µM Doxo for 7 days. Doxo was refreshed three times per week.

[18] = tested on: human articular chondrocytes (hAC); experiment: alamarBlue cytotoxicity/cell proliferation assay; format: cell-based; settings: 24 h; 200 ng/mL CXCL12; CXCR4 inhibitors 1 µM in combination with CXCL12 or alone; n = 5
Procedure: as §3
To quantitatively assess the cell proliferation and cytotoxicity of hAC, an alamarBlue (BioRad, Munich, Germany) assay was used. The assay is based on the conversion of non-fluorescent resazurin to fluorescent resorufin during cellular respiration. The fluorescence intensity of resorufin was measured at 550 nm excitation and 590 nm emission with a multimode microplate reader Infinite M200 Pro (Tecan, Crailsheim, Germany). Unstimulated cells served as baseline (100% cell viability).

c1cc(CN2CCCNCCNCCCNCC2)ccc1CN1CCCNCCNCCCNCC1 [AMD3100, AMD3100 octahydrochloride hydrate]
activity at ACKR3 [1]: weak allosteric agonist
spontaneous OA development [2]: attenuate
collagen-induced arthritis (CIA) [3]: attenuate
clinical peak plasma concentrations [4]: ~ 1 μM
matrix calcification during in vitro osteogenesis of MSCs [5]: not affected
gene expression of osteogenic markers during in vitro osteogenesis of MSCs ([5]; to a limited extend): impaired
Ca2+ deposition / matrix calcification (Alizarin Red S) [6]: could not find any influence
activity in mouse models of atopic dermatitis and eosinophilic asthma [7]: only poorly active
surgically-induced OA ([8]; mice): attenuate
severity of surgically-induced OA on inhibition in subchondral bone ([8]; mouse model, delivery to subchondral bone via an osmotic pump): reduced the severity
proliferation (Ki-67-positive cells) [9]: not altered
agonistic activity to recruit β-arrestin-2 at ACKR3 ([10]; concentrations up to 10 µM): weak agonistic activity
expression of the hypertrophic marker COL10A1 during osteogenic differentiation [11]: significantly reduced
gene expression of osteogenic markers (ALPL, RUNX2, SP7, IBSP) [11]: could not find any influence

CC[C@H](C)[C@H](N)C(=O)N[C@@H](CC(C)C)C(=O)N[C@@H](CCCNC(=N)N)C(=O)N[C@@H](Cc1c[nH]c2ccccc12)C(=O)N[C@@H](CO)C(=O)N[C@@H](CCCNC(=N)N)C(=O)N[C@@H](CCCCN)C(=O)N[C@@H](CC(C)C)C(=O)N1CCC[C@H]1C(=O)N[C@@H](CS)C(=O)N[C@H](C(=O)N[C@@H](CO)C(=O)O)C(C)C [EPI-X4 JM#21]
IC50 ([12]; read-out: IC50, inhibition of CXCL12-induced recruitment of β-arrestin-2 at CXCR4): 0.164 µM
EC50 ([10]; AUC vs buffer-only control): 7.8 µM

CC(C)C[C@H](NC(=O)[C@@H](NC(=O)[C@@H]1CCCN1C(=O)[C@@H](NC(=O)[C@H](CO)NC(=O)[C@@H](NC(=O)[C@H](CCC(N)=O)NC(=O)[C@@H]1CCCN1C(=O)[C@@H](NC(=O)[C@H](CCCCN)NC(=O)[C@H](CCCCN)NC(=O)[C@@H](NC(=O)[C@H](Cc1ccc(O)cc1)NC(=O)[C@H](CCCNC(=N)N)NC(=O)[C@@H](NC(=O)[C@@H](N)CC(C)C)C(C)C)[C@@H](C)O)C(C)C)C(C)C)[C@@H](C)O)[C@@H](C)O)C(=O)O [EPI-X4] (H-LVRYTKKVPQVSTPTL-OH)
IC50 [12]: 0.0102 µM

CXCL12: C-X-C motif chemokine 12, ligand of CXCR4 and ACKR3; used as stimulus at 200 ng/mL
cytotoxic effects in native cartilage tissue (live/dead assay) [13]: did not observe any cytotoxic effects
Ca2+ deposition / matrix calcification (Alizarin Red S) [6]: could not find any influence
number of migrated hAC in wound healing assay [14]: significantly increased
migration distance of isolated hAC (live cell tracking) [15]: increased
proliferation (Ki-67-positive cells) [9]: not altered
neocartilage formation, histologic assessment (score) of pellet culture [16]: did not reveal any significant effect
gene expression of COL10A1 in isolated chondrocytes [17]: did not significantly induce
gene expression of MMP13 in isolated chondrocytes [17]: did not significantly induce
cytotoxic effects in isolated chondrocytes (alamarBlue, relative fluorescence intensity) [18]: did not observe any cytotoxic effects
expression of the hypertrophic marker COL10A1 during osteogenic differentiation [11]: tended to increase
gene expression of osteogenic markers (ALPL, RUNX2, SP7, IBSP) [11]: could not find any influence
